“Also recorded” adds a separate entry of the source.
What was measured:
Type in all cases: in vivo, Mice C57BI/6
[1] = test system: melanoma-derived peptide TRP-2181-188 (TRP-2181-188-specific T cells); assay: IFN-γ ELISPOT on draining lymph node cells after footpad injection of TRP-2181-188 peptide with ODN; settings: for TRP-2181-188-specific immune response (number of IFN-γ-producing cells/1×10^6 lymph node cells) with co-injection of poly-L-arginine: ODN 5 nmol/mouse + TRP-2181-188 100 μg/mouse + pR60 100 μg/mouse; for TRP-2181-188-specific immune response (number of IFN-γ-producing cells/1×10^6 lymph node cells) with co-injection of poly-L-arginine / TRP-2181-188-specific immune response (number of IFN-γ-producing cells/1×10^6 lymph node cells): hind footpads; for TRP-2181-188-specific immune response (number of IFN-γ-producing cells/1×10^6 lymph node cells) / TRP-2181-188-specific immune response (IFN-γ-producing cells), FIG. 7-9: ODN 5 nmol/mouse + TRP-2181-188 100 μg/mouse; for TRP-2181-188-specific immune response (number of IFN-γ-producing cells/1×10^6 lymph node cells): no poly-L-arginine, lymph nodes 4 days later; for TRP-2181-188-specific immune response (IFN-γ-producing cells), FIG. 7-9: groups with and without pR 60, 4 days
Description: (§1) Animals were sacrificed 4 days after injection and popliteal lymph nodes were harvested. Lymph nodes were passed through a 70 μm cell strainer and washed twice with DMEM medium (GIBCO BRL) containing 5% fetal calf serum (FCS, SIGMA chemicals). Cells were adjusted to the appropriate cell number in DMEM/5%/FCS. An IFN-γ ELISPOT assay was carried out in triplicates as described (Miyahira et al., 1995). This method is a widely used procedure allowing the quantification of antigen-specific T cells. Lymphocytes were stimulated ex vivo in triplicates with medium (background-control), TRP-2181-188-peptide, an irrelevant peptide OVA257-264, pR 60, U-ODN13 and Concanavalin A (Con A). Spots representing single IFN-γ producing T cells were counted and the number of background spots was substracted from all samples. The high number of spots detected after the stimulation with Con A (data not shown) indicates a good condition of the used lymphocytes. For each experimental group of mice the number of IFN-γ-producing cells/1×10^6 cells are illustrated in FIG. 1, the standard deviation of ex vivo-stimulated triplicates is given.
as §1, with “U-ODN15” for “U-ODN13”, “5,” for “1,”
as §1, with “U-ODN 16, ODN 20” for “pR 60, U-ODN13”, “6,” for “1,”
Animals were sacrificed 4 days after injection and popliteal lymph nodes were harvested. Lymph nodes were passed through a 70 μm cell strainer and washed twice with DMEM medium (GIBCO BRL) containing 5% fetal calf serum (FCS, SIGMA chemicals). Cells were adjusted to the appropriate cell number in DMEM/5%/FCS. An IFN-γ ELISPOT assay was carried out in triplicates as described (Miyahira et al., 1995). This method is a widely used procedure allowing the quantification of antigen-specific T cells. […]

[2] = test system: mouse mastocytoma-derived peptide P1A35-43; assay: IFN-γ ELISPOT on draining lymph node cells after footpad injection of P1A35-43 peptide with ODN
Description: as §1, with “P1A35-43 peptide,” for “TRP-2181-188-peptide,”, “CSP (SYVPSAEQI, SEQ ID NO:18),” for “OVA257-264,”, “U-ODN 13” for “U-ODN13”, “spots/1×10^6” for “IFN-γ-producing cells/1×10^6”, “4,” for “1,”

[3] = test system: ovalbumin-derived peptide OVA257-264; assay: IFN-γ ELISPOT on draining lymph node cells after footpad injection of OVA257-264 peptide with ODN; settings: ODN 5 nmol/mouse + OVA257-264 300 μg/mouse, no pR60, 4 days
Description: as §1, with “duplicates” for “triplicates”, “OVA257-264 peptide,” for “TRP-2181-188-peptide,”, “TRP-2181-188,” for “OVA257-264,”, “3,” for “1,”

For hhh wdu dhh h [U-ODN 16], the “TRP-2181-188-specific immune response (IFN-γ-producing cells), 10mer cocktail” value ([1]; ODN 10 nmol/mouse + TRP-2181-188 100 μg/mouse, no pR60, compared to peptide alone or with ODN 20, 4 days) was “strong immune response”.
In the case of nhh hhh wdu dhh hhh hhh wn [U-ODN 15], the “TRP-2181-188-specific immune response (IFN-γ-producing cells) at 10 times less ODN” value ([1]; ODN 0.5 nmol/mouse + TRP-2181-188 100 μg/mouse, 4 days) was “strong immune response could be induced”, the “TRP-2181-188-specific immune response (number of IFN-γ-producing cells/1×10^6 lymph node cells) with co-injection of poly-L-arginine” value ([1]; 4 days) was “does not influence this strong response; also recorded: strong immune response” and the “TRP-2181-188-specific immune response (number of IFN-γ-producing cells/1×10^6 lymph node cells)” value [1] was “strongly enhances; also recorded: strong immune response”.
In the case of “tcc atg acu ttc ctg atg ct [U-ODN 13] (TCCATGACUTTCCTGATGCT; chemistry not given here)”, the “P1A35-43-specific immune response with co-injection of poly-L-arginine” value ([2]; ODN 5 nmol/mouse + P1A35-43 100 μg/mouse + pR60 100 μg/mouse, 4 days) was “further enhanced”, the “P1A35-43-specific immune response (IFN-γ-producing cells/1×10^6 lymph node cells)” value ([2]; ODN 5 nmol/mouse + P1A35-43 100 μg/mouse, no pR60, 4 days) was “strong immune response” and the “TRP-2181-188-specific immune response (number of IFN-γ-producing cells/1×10^6 lymph node cells) with co-injection of poly-L-arginine” value ([1]; 4 days) was “strong immune response; also recorded: does not influence this strong response”. The “TRP-2181-188-specific immune response (number of IFN-γ-producing cells/1×10^6 lymph node cells)” value [1] was “strong immune response; also recorded: strongly enhances”, the “TRP-2181-188-specific T cells / immune response compared to CpG-ODN 1668” value ([1]; ODN 5 nmol/mouse vs CpG 1668 5 nmol/mouse, each with TRP-2181-188, 4 days) was “higher number” and the “OVA257-264-specific immune response (IFN-γ-producing cells/1×10^6 lymph node cells)” value [3] was “induces an immune response”.
For “tcc atg acu ttc ctg atg ct [U-ODN 13b] (DNA TCCATGACUTTCCTGCTGATGCT; DNA, backbone and methylation of C not given here; further chemistry not fully specified)”, the “TRP-2181-188-specific immune response (number of IFN-γ-producing cells/1×10^6 lymph node cells) with co-injection of poly-L-arginine” value ([1]; 4 days) was “only after co-injection of poly-L-arginine a strong peptide-specific immune response is induced; also recorded: only upon co-injection of poly-L-arginine a high immune response was induced”.
For “uau aua uau aua uau aua uau aua ua (UAUAUAUAUAUAUAUAUAUAUAUAUA; DNA, all phosphorothioate, T or U not given here) [U-ODN 21]”, the “TRP-2181-188-specific immune response (IFN-γ-producing cells), FIG. 7-9” value (from here on “TRP-2181-188-specific immune response … FIG. 7-9”) [1] was “generation of specific immune responses”.
With “uiu iui uiu iui uiu iui uiu iui ug [U-ODN 22]” the “TRP-2181-188-specific immune response … FIG. 7-9” value [1] was “generation of specific immune responses”.
With “uuu uuu uuu uuu uuu uuu uuu uuu ut (UUUUUUUUUUUUUUUUUUUUUUUUUT; DNA, all phosphorothioate, T or U not given here) [U-ODN 24]” the “TRP-2181-188-specific immune response … FIG. 7-9” value [1] was “generation of specific immune responses”.

Source: patent US7858588B2, “Immunostimulatory oligodeoxynucleic molecules” (Intercell AG, priority 2001, dated 2010)
